Test results published in ChEMBL document CHEMBL5055685, “Discovery of the First Potent IDO1/IDO2 Dual Inhibitors: A Promising Strategy for Cancer Immunotherapy” (J Med Chem, 2021).
The source made the active and inactive calls. The calls are words filed in the database; no cut-off is given here.

Assays:
[1] = biological target: Serine/threonine-protein kinase PLK2 (Homo sapiens) (UniProt Q9NYY3); test: Inhibition of PLK2 (unknown origin) at 1 uM
[2] = biological target: Ephrin type-A receptor 5 (Homo sapiens) (UniProt P54756); test: Inhibition of EPHA5 (unknown origin) at 1 uM
Mus musculus = test: In vivo inhibition of IDO2 in BALB/c mouse xenografted with human HCT-116 cells assessed as suppression of IDO2 mRNA expression in tumor by quantitative RT-PCR analysis; format: functional, organism-based
[3] = biological target: Cyclin-dependent kinase 4/cyclin D1 (Homo sapiens) (UniProt P11802+P24385); test: Inhibition of CDK4/cyclin-D1 (unknown origin) at 1 uM; format: protein-complex assay
[4] = biological target: Protein kinase C delta type (Homo sapiens) (UniProt Q05655); test: Inhibition of PKCdelta (unknown origin)at 1 uM
[5] = biological target: Fibroblast growth factor receptor 3 (Homo sapiens) (UniProt P22607); test: Inhibition of FGFR3 (unknown origin) at 1 uM
[6] = biological target: Inactive tyrosine-protein kinase PEAK1 (Homo sapiens) (UniProt Q9H792); test: Inhibition of PEAK1 (unknown origin) at 1 uM
[7] = biological target: Dual specificity mitogen-activated protein kinase kinase 2 (Homo sapiens) (UniProt P36507); test: Inhibition of MEK2 (unknown origin) at 1 uM
[8] = biological target: Ribosomal protein S6 kinase alpha-5 (Homo sapiens) (UniProt O75582); test: Inhibition of MSK1 (unknown origin) at 1 uM
Ribosomal protein S6 kinase alpha-5 (Homo sapiens), sequence (O75582 whole entry, looked up): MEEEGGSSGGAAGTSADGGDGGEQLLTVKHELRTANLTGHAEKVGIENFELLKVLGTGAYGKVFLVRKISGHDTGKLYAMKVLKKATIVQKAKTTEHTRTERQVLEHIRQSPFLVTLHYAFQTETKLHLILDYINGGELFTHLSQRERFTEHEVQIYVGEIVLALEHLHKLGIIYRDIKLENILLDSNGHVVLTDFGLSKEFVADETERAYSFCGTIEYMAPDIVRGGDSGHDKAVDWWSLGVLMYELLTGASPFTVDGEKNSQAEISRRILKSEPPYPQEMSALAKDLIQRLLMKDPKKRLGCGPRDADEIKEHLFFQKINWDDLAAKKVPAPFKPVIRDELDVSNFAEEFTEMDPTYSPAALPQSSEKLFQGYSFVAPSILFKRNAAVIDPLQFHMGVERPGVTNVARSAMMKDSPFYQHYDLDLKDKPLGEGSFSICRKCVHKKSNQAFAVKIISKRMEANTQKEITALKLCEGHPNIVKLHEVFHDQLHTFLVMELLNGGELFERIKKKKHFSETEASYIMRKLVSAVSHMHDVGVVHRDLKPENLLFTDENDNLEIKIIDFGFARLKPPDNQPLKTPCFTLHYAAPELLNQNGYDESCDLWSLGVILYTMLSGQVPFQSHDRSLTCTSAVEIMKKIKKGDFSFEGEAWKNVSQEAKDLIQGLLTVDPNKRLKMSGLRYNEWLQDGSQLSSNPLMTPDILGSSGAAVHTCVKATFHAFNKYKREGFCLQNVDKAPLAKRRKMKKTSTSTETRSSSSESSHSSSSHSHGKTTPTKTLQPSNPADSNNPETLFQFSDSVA

Fibroblast growth factor receptor 3 (Homo sapiens), sequence (P22607 23-806 limits assumed): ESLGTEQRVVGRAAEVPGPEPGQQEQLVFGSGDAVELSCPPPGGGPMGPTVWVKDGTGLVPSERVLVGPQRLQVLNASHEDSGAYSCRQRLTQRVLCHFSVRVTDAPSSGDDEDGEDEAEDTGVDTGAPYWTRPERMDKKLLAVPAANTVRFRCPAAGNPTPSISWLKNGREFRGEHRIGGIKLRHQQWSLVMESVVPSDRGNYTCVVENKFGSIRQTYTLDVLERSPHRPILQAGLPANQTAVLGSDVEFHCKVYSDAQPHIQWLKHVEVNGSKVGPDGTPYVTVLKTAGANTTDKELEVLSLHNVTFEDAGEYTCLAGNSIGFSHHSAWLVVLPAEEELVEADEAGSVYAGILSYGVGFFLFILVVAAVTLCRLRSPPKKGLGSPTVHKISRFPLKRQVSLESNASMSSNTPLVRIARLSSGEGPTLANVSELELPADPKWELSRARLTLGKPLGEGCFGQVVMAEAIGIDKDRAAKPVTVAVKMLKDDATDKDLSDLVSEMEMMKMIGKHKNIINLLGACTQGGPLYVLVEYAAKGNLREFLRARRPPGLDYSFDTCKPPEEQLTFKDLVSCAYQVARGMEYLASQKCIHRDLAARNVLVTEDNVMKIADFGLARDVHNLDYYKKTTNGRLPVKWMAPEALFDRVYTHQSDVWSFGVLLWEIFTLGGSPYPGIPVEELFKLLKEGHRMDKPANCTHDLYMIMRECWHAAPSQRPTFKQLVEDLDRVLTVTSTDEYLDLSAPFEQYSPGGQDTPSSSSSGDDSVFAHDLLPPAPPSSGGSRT
Protein kinase C delta type (Homo sapiens), sequence (Q05655 whole entry, looked up): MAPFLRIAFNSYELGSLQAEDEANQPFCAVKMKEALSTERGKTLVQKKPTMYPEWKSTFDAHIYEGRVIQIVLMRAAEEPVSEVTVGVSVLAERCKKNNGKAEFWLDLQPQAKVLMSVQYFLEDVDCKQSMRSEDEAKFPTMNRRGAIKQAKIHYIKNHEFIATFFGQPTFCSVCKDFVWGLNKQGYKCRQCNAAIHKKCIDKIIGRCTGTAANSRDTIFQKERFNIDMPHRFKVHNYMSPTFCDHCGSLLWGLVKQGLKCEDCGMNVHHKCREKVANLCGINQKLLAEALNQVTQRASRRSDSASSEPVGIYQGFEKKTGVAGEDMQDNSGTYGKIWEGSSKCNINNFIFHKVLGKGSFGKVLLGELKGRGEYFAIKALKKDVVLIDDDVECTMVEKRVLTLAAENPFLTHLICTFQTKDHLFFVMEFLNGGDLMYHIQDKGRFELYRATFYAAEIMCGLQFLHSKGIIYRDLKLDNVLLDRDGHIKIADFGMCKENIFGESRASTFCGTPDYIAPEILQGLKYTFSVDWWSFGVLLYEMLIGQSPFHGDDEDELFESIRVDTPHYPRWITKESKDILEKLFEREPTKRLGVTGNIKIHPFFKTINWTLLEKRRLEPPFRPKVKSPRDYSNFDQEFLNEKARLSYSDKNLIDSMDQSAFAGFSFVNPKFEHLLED
Dual specificity mitogen-activated protein kinase kinase 2 (Homo sapiens), sequence (P36507 whole entry): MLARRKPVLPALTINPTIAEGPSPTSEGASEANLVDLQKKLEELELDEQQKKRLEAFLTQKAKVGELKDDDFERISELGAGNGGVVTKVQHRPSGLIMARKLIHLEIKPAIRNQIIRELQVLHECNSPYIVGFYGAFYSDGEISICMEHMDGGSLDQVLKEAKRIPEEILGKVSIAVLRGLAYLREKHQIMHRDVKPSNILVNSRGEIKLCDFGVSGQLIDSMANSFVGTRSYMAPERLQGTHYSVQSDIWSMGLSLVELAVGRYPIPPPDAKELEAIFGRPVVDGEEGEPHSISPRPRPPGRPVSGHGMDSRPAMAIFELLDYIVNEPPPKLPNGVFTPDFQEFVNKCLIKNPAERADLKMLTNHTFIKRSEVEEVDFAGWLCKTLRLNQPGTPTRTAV
Inactive tyrosine-protein kinase PEAK1 (Homo sapiens), sequence (Q9H792 whole entry): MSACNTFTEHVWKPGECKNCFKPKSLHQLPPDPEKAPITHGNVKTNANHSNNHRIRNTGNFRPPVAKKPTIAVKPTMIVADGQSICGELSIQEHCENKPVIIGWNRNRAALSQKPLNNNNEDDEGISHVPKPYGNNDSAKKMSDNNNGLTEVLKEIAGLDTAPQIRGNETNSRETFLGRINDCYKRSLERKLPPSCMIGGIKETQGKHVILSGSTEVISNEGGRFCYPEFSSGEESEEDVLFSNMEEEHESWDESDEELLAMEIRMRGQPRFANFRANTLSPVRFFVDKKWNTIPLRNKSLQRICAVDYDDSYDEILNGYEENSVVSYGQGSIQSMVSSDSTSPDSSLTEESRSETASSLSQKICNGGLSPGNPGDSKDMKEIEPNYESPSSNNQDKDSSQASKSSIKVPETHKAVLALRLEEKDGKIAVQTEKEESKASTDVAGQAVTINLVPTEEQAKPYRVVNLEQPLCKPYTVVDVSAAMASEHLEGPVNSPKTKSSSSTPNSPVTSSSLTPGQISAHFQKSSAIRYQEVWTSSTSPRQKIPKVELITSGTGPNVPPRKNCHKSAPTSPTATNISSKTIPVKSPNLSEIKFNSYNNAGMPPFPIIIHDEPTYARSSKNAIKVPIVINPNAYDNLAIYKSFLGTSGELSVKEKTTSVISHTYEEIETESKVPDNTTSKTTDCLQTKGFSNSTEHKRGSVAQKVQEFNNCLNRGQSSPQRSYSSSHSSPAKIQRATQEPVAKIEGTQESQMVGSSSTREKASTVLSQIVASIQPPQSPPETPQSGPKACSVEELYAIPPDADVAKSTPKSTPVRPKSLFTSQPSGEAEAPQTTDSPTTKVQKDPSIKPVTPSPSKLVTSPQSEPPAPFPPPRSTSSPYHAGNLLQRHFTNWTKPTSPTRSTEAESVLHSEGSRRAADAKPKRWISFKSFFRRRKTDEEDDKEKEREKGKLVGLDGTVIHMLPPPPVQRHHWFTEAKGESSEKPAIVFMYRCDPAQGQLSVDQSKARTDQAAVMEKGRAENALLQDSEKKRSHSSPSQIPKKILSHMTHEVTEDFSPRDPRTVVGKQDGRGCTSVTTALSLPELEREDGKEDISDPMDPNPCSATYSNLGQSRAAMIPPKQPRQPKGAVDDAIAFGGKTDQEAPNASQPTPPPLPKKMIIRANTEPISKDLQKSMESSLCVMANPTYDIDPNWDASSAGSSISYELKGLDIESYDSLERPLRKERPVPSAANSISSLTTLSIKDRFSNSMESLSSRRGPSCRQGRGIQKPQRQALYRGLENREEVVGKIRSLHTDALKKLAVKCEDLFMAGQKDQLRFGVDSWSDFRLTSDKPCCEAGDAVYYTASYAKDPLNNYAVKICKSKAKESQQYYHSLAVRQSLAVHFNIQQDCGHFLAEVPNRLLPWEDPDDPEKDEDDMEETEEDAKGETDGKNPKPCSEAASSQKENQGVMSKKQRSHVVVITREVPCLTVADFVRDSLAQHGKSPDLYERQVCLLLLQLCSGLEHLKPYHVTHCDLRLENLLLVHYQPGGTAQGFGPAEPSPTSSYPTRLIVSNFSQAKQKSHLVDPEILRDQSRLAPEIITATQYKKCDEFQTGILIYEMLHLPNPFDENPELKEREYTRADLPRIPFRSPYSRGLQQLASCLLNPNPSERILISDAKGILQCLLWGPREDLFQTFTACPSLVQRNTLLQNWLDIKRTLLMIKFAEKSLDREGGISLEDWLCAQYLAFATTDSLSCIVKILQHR
Serine/threonine-protein kinase PLK2 (Homo sapiens), sequence (Q9NYY3 whole entry, looked up): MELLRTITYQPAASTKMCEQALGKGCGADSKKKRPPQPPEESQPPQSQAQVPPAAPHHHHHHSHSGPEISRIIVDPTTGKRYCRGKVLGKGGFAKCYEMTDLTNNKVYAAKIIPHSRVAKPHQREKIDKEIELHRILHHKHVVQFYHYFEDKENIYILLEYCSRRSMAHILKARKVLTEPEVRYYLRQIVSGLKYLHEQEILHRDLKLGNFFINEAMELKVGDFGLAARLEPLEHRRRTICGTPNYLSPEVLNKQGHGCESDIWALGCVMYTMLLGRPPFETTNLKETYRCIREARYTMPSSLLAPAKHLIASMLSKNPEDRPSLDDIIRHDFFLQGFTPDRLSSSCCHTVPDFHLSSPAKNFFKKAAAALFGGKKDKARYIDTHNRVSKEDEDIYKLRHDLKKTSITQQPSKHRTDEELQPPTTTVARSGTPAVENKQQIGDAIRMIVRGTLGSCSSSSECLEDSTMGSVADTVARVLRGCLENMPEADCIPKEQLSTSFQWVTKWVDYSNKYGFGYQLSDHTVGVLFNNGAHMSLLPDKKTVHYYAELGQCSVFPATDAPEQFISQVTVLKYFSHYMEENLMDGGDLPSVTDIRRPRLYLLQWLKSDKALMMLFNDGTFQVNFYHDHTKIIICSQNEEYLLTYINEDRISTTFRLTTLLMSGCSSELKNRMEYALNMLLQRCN

OCCOCc1cn(CCNc2nonc2/C(=N/O)Nc2ccc(F)c(Br)c2)nn1
inhibition [1]: inactive
inhibition [2]: inactive
inhibition (Mus musculus): Active
inhibition [3]: inactive
inhibition [4]: inactive
inhibition [5]: inactive
inhibition [6]: inactive
inhibition [7]: inactive
inhibition [8]: inactive
